Consider 16 molecules from patent US20230011571A1, “SMALL MOLECULE FURIN INHIBITORS FOR TREATING INFECTIOUS DISEASES” (BP Asset V, Inc., priority 2019, published 2023).

Holding throughout (type): cell-based
The subject of experiment [1] is dengue virus (DENV). Briefly: microbe, parasite or virus in culture. The following applies: for inhibition at 1 µM: Dengue virus, Vero, 120 h, read-out: Percent viral inhibition DENY.
In experiment [2] the test system is Marburg virus (MARV). Kind of experiment: organism not typed. Conditions: for inhibition at 1 µM: Vero, 72 h, read-out: Percent viral inhibition MARV.
The test system of experiment [3] is Chikungunya virus (CHIKV). Briefly: microbe, parasite or virus in culture. The following applies: for inhibition at 1 µM: Chikungunya virus, Vero, 48 h, read-out: Percent viral inhibition CHKV.

Each structure is given as a SMILES string.

`CNC1CCN(c2ncc(Oc3cc(CN4CCC(CC(=O)O)CC4)cc(-c4cc(Cl)cc(Cl)c4)n3)cn2)C1` (stereo not drawn) [Example 152, 2-(1-((2-(3,5-dichlorophenyl)-6-((2-(3-(methylamino)pyrrolidin-1-yl)pyrimidin-5-yl)oxy)pyridin-4-yl)methyl)piperidin-4-yl)acetic acid]: the inhibition at 1 µM was 19% in experiment [1], 44.1% in experiment [2] and 16.3% in experiment [3].
On the same counts, the results for `CC(=O)NCC1CCN(Cc2cc(Oc3ccc(N4CC[N+](C)([O-])CC4)nc3)nc(-c3cc(Cl)cc(Cl)c3)c2)CC1` [Example 178, 4-(5-((4-((4-(acetamidomethyl)piperidin-1-yl)methyl)-6-(3,5-dichlorophenyl)pyridin-2-yl)oxy)pyridin-2-yl)-1-methylpiperazinel-oxide] are 71.1%, 57.7% and 30.4%.
For `CNC(=O)NCC1CCN(Cc2cc(Oc3cnc(N4CCN(CCC(=O)O)CC4)c(F)c3)nc(-c3cc(Cl)cc(Cl)c3)c2)CC1` [Example 270, 3-(4-(5-((6-(3,5-dichlorophenyl)-4-((4-((3-methylureido)methyl)piperidin-1-yl)methyl)pyridin-2-yl)oxy)-3-fluoropyridin-2-yl)piperazin-1-yl)propanoic acid], the inhibition at 1 µM in experiment [1] was found to be 61.6%; in experiment [2] it was 53.6%; in experiment [3], 30.7%.
In the case of `CS(=O)(=O)CCCN1CCN(c2cnc(Oc3cc(CN4CCC(CC(=O)O)CC4)cc(-c4cc(Cl)cc(Cl)c4)n3)cn2)CC1` [Example 354, 2-(1-((2-(3,5-dichlorophenyl)-6-((5-(4-(3-(methylsulfonyl)propyl)piperazin-1-yl)pyrazin-2-yl)oxy)pyridin-4-yl)methyl)piperidin-4-yl)acetic acid], the values for the inhibition at 1 µM in experiment [1], in experiment [2] and in experiment [3] were 40.8%, 45.2% and 17.2%, respectively.
On the same counts, the results for `CN1CCN(c2ncc(Oc3cc(CN4CCC(CC(=O)O)CC4)cc(-c4cc(Cl)cc(Cl)c4)c3)cn2)CC1` [Example 117, 2-(1-((3′,5′-dichloro-5-((2-(4-methylpiperazin-1-yl)pyrimidin-5-yl)oxy)-[1,1′-biphenyl]-3-yl)methyl)piperidin-4-yl)acetic acid] are 28.6%, 43.6% and 18%.
Consider `CN1CCN(c2ncc(Oc3cc(CN4CCC(NC(N)=O)CC4)cc(-c4cc(Cl)cc(Cl)c4)n3)cn2)CC1` [Example 329, 1-(1-((2-(3,5-dichlorophenyl)-6-((2-(4-methylpiperazin-1-yl)pyrimidin-5-yl)oxy)pyridin-4-yl)methyl)piperidin-4-yl)urea], for which the inhibition at 1 µM in experiment [1] came out at 19.2%; in experiment [2] it was 42.3%; in experiment [3], 22.2%.
Turning to `CC(=O)NCC1CCN(Cc2cc(Oc3ccc(N4CCN(CCS(N)(=O)=O)CC4)nc3)nc(-c3cc(Cl)cc(Cl)c3)c2)CC1` [Example 289, N-((1-((2-(3,5-dichlorophenyl)-6-((6-(4-(2-sulfamoylethyl)piperazin-1-yl)pyridin-3-yl)oxy)pyridin-4-yl)methyl)piperidin-4-yl)methyl)acetamide], in experiment [1] (1 µM), the “Percent viral inhibition DENY” value came to 43.48%. For the same molecule, the “Percent viral inhibition MARV” value in experiment [2] (1 µM) is 40.64%. For the same molecule, in experiment [3] (1 µM), the “Percent viral inhibition CHKV” value worked out at 28.95%.
For the molecule `O=C(O)CC1CCN(Cc2cc(Oc3cnc(N4CCN(CCC5(O)CC5)CC4)nc3)nc(-c3cc(Cl)cc(Cl)c3)c2)CC1` [Example 278, 2-(1-((2-(3,5-dichlorophenyl)-6-((2-(4-(2-(1-hydroxycyclopropyl)ethyl)piperazin-1-yl)pyrimidin-5-yl)oxy)pyridin-4-yl)methyl)piperidin-4-yl)acetic acid], the inhibition at 1 µM in experiment [1] came to 45.5%; in experiment [2] it was 81.7%; in experiment [3], 45.6%.
For `CC(=O)NCC1CCN(Cc2cc(Oc3ccc(N4CCN(CCC(=O)O)CC4)nc3)nc(-c3cc(F)cc(Br)c3)c2)CC1` [Example 116] the same measures were 6.7%, 4.3% and 10.4%.
On the same counts, the results for `CC(=O)NCC1CCN(Cc2cc(Oc3cnc(N4CCN(CCC(C)C(=O)O)CC4)cn3)nc(-c3cc(Cl)cc(Cl)c3)c2)CC1` (stereo not drawn) [Example 396, 4-(4-(5-((4-((4-(acetamidomethyl)piperidin-1-yl)methyl)-6-(3,5-dichlorophenyl)pyridin-2-yl)oxy)pyrazin-2-yl)piperazin-1-yl)-2-methylbutanoic acid] are 46.3%, 26.7% and 21.5%.
On to `CC(=O)NCC1CCN(Cc2cc(Oc3cnc(N4CCN(C)CC4)cn3)nc(-c3cc(Cl)cc(Cl)c3)c2)CC1` [Example 110, N-((1-((2-(3,5-dichlorophenyl)-6-((5-(4-methylpiperazin-1-yl)pyrazin-2-yl)oxy)pyridin-4-yl)methyl)piperidin-4-yl)methyl)acetamide], for which the values for the inhibition at 1 µM in experiment [1], in experiment [2] and in experiment [3] were 13.6%, 59.5% and 9.88%, respectively.
On the same counts, the results for `O=C(O)COC1CCN(Cc2cc(Oc3cnc(N4CCNCC4)nc3)nc(-c3cc(Cl)cc(Cl)c3)c2)CC1` [Example 122, 2-((1-((2-(3,5-dichlorophenyl)-6-((2-(piperazin-1-yl)pyrimidin-5-yl)oxy)pyridin-4-yl)methyl)piperidin-4-yl)oxy)acetic acid] are 33.7%, 23.6% and 35.5%.
In the case of `C[C@H](CC1CCN(Cc2cc(Oc3ccc(N4CCN(C)CC4)nn3)nc(-c3cc(Cl)cc(Cl)c3)c2)CC1)C(=O)O` [Example 364, (R)-3-(1-((2-(3,5-dichlorophenyl)-6-((6-(4-methylpiperazin-1-yl)pyridazin-3-yl)oxy)pyridin-4-yl)methyl)piperidin-4-yl)-2-methylpropanoic acid], the values for the inhibition at 1 µM in experiment [1], in experiment [2] and in experiment [3] were 40%, 47.6% and 31.4%, respectively.
`CC(=O)NCC1CCN(Cc2cc(Oc3ccc(N4CCN(CCS(C)(=O)=O)CC4)nc3)nc(-c3cc(Cl)cc(Cl)c3)c2)CC1` [Example 12, N-((1-((2-(3,5-dischlorophenyl)-6-((6-(4-(2-(methylsulfonyl)ethyl)piperazin-1-yl)pyridin-3-yl)oxy)pyridin-4-yl)methyl)piperidin-4-yl)methyl)acetamide]: the inhibition at 1 µM was 58.3% in experiment [1], 44.5% in experiment [2] and 24.7% in experiment [3].
On the same counts, the results for `CC(=O)NCC1CCN(Cc2cc(Oc3ccc(N4CCNC(CO)C4)nc3)nc(-c3cc(Cl)cc(Cl)c3)c2)CC1` (stereo not drawn) [Example 195, N-((1-((2-(3,5-dichlorophenyl)-6-((6-(3-(hydroxymethyl)piperazin-1-yl)pyridin-3-yl)oxy)pyridin-4-yl)methyl)piperidin-4-yl)methyl)acetamide] are 39.4%, 38.2% and 18.1%.
`COC(=O)NC(=O)NCC1CCN(Cc2cc(Oc3cnc(N4CCN(C)CC4)nc3)nc(-c3cc(Cl)cc(Cl)c3)c2)CC1` [Example 325, N-1-((1-((2-(3,5-dichlorophenyl)-6-((2-(4-methylpiperazin-1-yl)pyrimidin-5-yl)oxy)pyridin-4-yl)methyl)piperidin-4-yl)methyl)-N′-methoxyl-carbonylurea]: the inhibition at 1 µM in experiment [1] came out at 5.08%; in experiment [2], 0%; in experiment [3], 0%.

What is called inhibition is how much of the control response was suppressed.
